We go through 3 compounds from patent US20230109839A1, “THERAPEUTIC AGENT FOR TAUOPATHIES” (SUMITOMO PHARMA CO., LTD., priority 2020, published 2023).

The subject of test [1] is phosphorylated tau oligomer. Kind of test: Evaluation of phosphorylated tau oligomers in brain of APP-Tg mice, Western blotting (Test 4). Type of test: in vivo, mouse. The following applies: for reducing effect of tau oligomer: with food for 7-10 days, ABT 1 mg/g-food depending on the compound, brain, anti-oligomerized tau antibody TOMA-1. Here is the method: Test 4: Evaluation of Phosphorylated Tau Oligomers Using APP-Tg Mice
This test is a test to quantify the oligomer of phosphorylated tau in the brain to evaluate the action of a compound. […] The APP-Tg mice used herein were prepared by the method described in Test 3.
The test compound administered with food to APP-Tg mice for 7-10 days. At this time, in order to increase the blood concentration of the test compound, ABT was used in combination with a mixed diet of 1 mg/g-food depending on the compound. After the administration, the brain was collected, and the protein is extracted from the collected brain using TBS (Tris Buffered Saline) or sarcosyl, and then SDS-PAGE (sodium dodecyl sulfate-polyacrylamide gel electrophoresis) of the soluble or insoluble fraction was performed. After that, Western blotting was performed using an anti-oligomerized tau antibody (Anti-Tau, oligomeric, clone TOMA-1), and the effect of the test compound was evaluated by quantifying the band amount of the phosphorylated tau oligomer.
The reducing effect of phosphorylated tau oligomer was calculated by the following formula, and from the calculated values, the results were defined as follows: 0-25%: +, 25-50%: ++, 50-75%: +++, and 75-100%: ++++. The significant difference from the vehicle-administered group was determined using the Student t-test. For the band amount, the value corrected by the β-actin band amount was used.
Reducing effect of phosphorylated tau oligomer={(band amount of oligomerized tau in vehicle-administered group−band amount of oligomerized tau in test compound-administered group)/band amount of oligomerized tau in vehicle-administered group}×100
For orientation: Immunoblotting shows a protein as a band on a membrane.

For a further test, the system named is rTg4510 mice. Kind of test: Cerebral atrophy in rTg4510 mice, MRI volume of brain regions (Test 5). Type of test: in vivo, mouse. To be noted: for volume cerebellum / volume cerebral neocortex / volume hippocampus / volume lateral ventricle: 5.8 mg/g-food from the age of 4 months; for age-dependent increase in lateral ventricular volume vs non-administration group: mixed diet 3 mg/g-food with ABT 1 mg/g-food. From the text: Test 5: Evaluation of Intracerebral Tau Aggregate Accumulation and Cerebral Atrophy Using rTg4510 Mice
This test is a test to evaluate the effects of the compounds on intracerebral tau aggregate accumulation and cerebral atrophy. The rTg4510 mice overexpress the human-type FTDP-17 mutant tau in the forebrain, and month-age-dependent intracerebral tau aggregate accumulation and cerebral atrophy are observed. The rTg4510 mice used herein were produced by mating Tg (tauP301L) 4510 mice (Stock No. 015815) and CaMKII-tTA mice (Stock No. 007004) purchased from The Jackson Laboratory and breeding them.
The test compound was administered as a mixed diet to rTg4510 mice from the age of 4 months, and PET scan and MRI were performed at the ages of 4, 6 and 8 months to quantitatively evaluate the amount of the intracerebral tau aggregate accumulated and cerebral atrophy. The PET scan was performed using MicroPET Focus 220 of Siemens Medical Solutions (0.851 mm thick (intercenter) 95 slices, 19.0 cm axial field of view (FOV), and 7.6 cm intra-section FOV). The administration of radioactive compound [^18F] PM-PBB3 (precursor obtained from Aprinoia) and the PET scan were performed in dimly lit after the mice was treated with 1.5% isoflurane anesthesia to avoid […] of the radioactive compound. The emission scan was performed for 60 minutes immediately after the intravenous administration of [^18F] PM-PBB3 (1 mCi) (3D list mode, energy window: 350-750 keV). Then, the list mode data sorted into 3D synograms were converted into 2D synograms by Fourier-rebinding (frames: 4×1, 8×2 and 8×5 minutes). The dynamic image for 60 minutes after the administration of [^18F] PM-PBB3 was reconstructed by a filter-corrected back projection with a 0.5 mm Hanning filter. Regions of interest (ROI) were set in multiple brain regions using PMOD image analysis software (PMOD Technology) with reference to the MRI templates and the PET reconstructed images. Tau aggregate accumulation was evaluated by calculating SUVR (Standardized uptake value ratio) with the cerebellum as a reference region, based on the added average of dynamic images from 40 minutes to 60 minutes.
The evaluation of cerebral atrophy was performed with horizontal superconducting magnet type MRI (7T, inner diameter 400 mm, self-shielding type, zero boil-off type). The imaging was performed under isoflurane anesthesia while maintaining the rectal temperature at 36.5±0.5° C. After Tripilot acquisition, the brain images were acquired by TurboRARE T2 emphasis sequence (TR: 4200 ms, TE: 36 ms, Fat-Sup: on, NA: 4, RARE factor: 8, scan time: 14 min) (FOV read: 25.6 mm, FOV P1: 14.5 mm, Slice thickness: 0.5 mm, number of slices: 28). The ROI of each brain region was set in each of the acquired slices, and the volume of the brain region was calculated by summing the ROI areas of all the slices to evaluate the effect of the test compound.

[2] abbreviates: diet 5.8 mg/g-food from the age of 4 months.

Entries after “also recorded” stand apart in the source; their conditions may differ.

Consider `CC1CCN(c2ccc(=O)n(CC(=O)Nc3ccc(C#N)cc3)n2)CC1` [Example 1, N-(4-Cyanophenyl)-2-[3-(4-methylpiperidin-1-yl)-6-oxopyridazin-1(6H)-yl]acetamide], for which the “Reducing effect of phosphorylated tau oligomer” value in test [1] (dose 1.9 mg/g-food, 7-10 days, without ABT) was “+ + +”. In addition, in test [1] (dose 5.8 mg/g-food, 7-10 days, without ABT), the “Reducing effect of phosphorylated tau oligomer” value is recorded as “+ + + +”. In test [1], the “reducing effect of tau oligomer” value was “some reducing effect of tau oligomer; also recorded: strong reducing effect of tau oligomer”. In the test with rTg4510 mice (4 month old), this compound showed a volume cerebellum of 34.3 ± 0.19 mm^3, a volume cerebral neocortex of 60.1 ± 0.49 mm^3, a volume hippocampus of 14.0 ± 0.13 mm^3 and a volume lateral ventricle of 0.79 ± 0.014 mm^3. In the test with rTg4510 mice (6 month old), this compound came in with a volume cerebellum of 33.9 ± 0.18 mm^3, a volume cerebral neocortex of 50.9 ± 0.98 mm^3, a volume hippocampus of 12.6 ± 0.22 mm^3 and a volume lateral ventricle of 1.70 ± 0.312 mm^3. In the test on rTg4510 mice (8 month old), this compound registered a volume cerebellum of 33.4 ± 0.33 mm^3, a volume cerebral neocortex of 45.3 ± 1.13 mm^3, a volume hippocampus of 12.7 ± 0.12 mm^3 and a volume lateral ventricle of 0.61 ± 0.036 mm^3. For the same compound, in the test with rTg4510 mice (setting [2]), the “age-dependent cerebral atrophy in the cerebral neocortex and hippocampus (volume, FIG. 2)” value is “statistically significantly suppressed”; the “age-dependent increase in the lateral ventricular volume (FIG. 2)” value is reported as “statistically significantly suppressed”. Also, the “cerebral atrophy and enlargement of the lateral ventricle with aging (T2-weighted images, FIG. 1)” value with rTg4510 mice (diet 5.8 mg/g-food from the age of 4 months, ages 4, 6 and 8 months, vs non-administration group) was “significantly suppressed”.
With `CN(c1ncc2cnn(CC(=O)Nc3ccn4ncnc4c3)c2n1)C1CCCC1` [Example 795, 2-{6-[cyclopentyl(methyl)amino]-1H-pyrazolo[3,4-d]pyrimidin-1-yl}-N-([1,2,4]triazolo[1,5-a]pyridin-7-yl)acetamide], the “Reducing effect of phosphorylated tau oligomer” value in test [1] (dose 0.2 mg/g-food, 7-10 days, with ABT 1 mg/g-food) is reported as “+ (0-25%: +)”; in test [1] (dose 2 mg/g-food, 7-10 days, with ABT 1 mg/g-food), “+++ (50-75%: +++)”. In addition, the “reducing effect of tau oligomer” value in test [1] is given as “some reducing effect of tau oligomer; also recorded: strong reducing effect of tau oligomer”. Further, the results for the “age-dependent increase in lateral ventricular volume vs non-administration group” value in the test on rTg4510 mice (at the age of 6 months) and with rTg4510 mice (at the age of 8 months) were “tendency to suppress” and “not different”, respectively.
Regarding `CC1CC=C(c2cnc3cnn(CC(=O)Nc4ccn5ncnc5c4)c3n2)CC1` (stereo not drawn) [Example 577, 2-[6-(4-methylcyclohex-1-en-1-yl)-1H-pyrazolo[3,4-b]pyrazin-1-yl]-N-([1,2,4]triazolo[1,5-a]pyridin-7-yl)acetamide], the inhibition in vivo at 2.2 mg/g-food in test [1] (Mus musculus, po, dose 2.2 mg/g-food, 7-10 days, without ABT, read-out: Reducing effect of phosphorylated tau oligomer) lay within 0 to 25%. Also, the inhibition in vivo at 6.6 mg/g-food in test [1] (Mus musculus, po, dose 6.6 mg/g-food, 7-10 days, without ABT, read-out: Reducing effect of phosphorylated tau oligomer) lay in the range of 50 to 75%. In addition, in test [1], the “reducing effect of tau oligomer” value was “some reducing effect of tau oligomer; also recorded: strong reducing effect of tau oligomer”. Also, the “suppression of cerebral atrophy” value in the test with rTg4510 mice (mixed diet 0.7 and 6.6 mg/g-food) is on record as “no suppression”.
